Several values for one entry are separate records, joined by “and”; a condition that tells them apart may be missing. Equal entries are not always repeated. Structures can show the parent of a compound that is named as a salt.
Test system: DOPAC release in the rat prefrontal cortex
Test: Microdialysis: DOPAC release in prefrontal cortex after I.P. administration
Format: in vivo
Conditions: for DOPAC (% of respective basal), individual animal: 0.1 mg/kg I.P., c2-c9 = R#13,14,20,19,25,26,31,32; for DOPAC (% of respective basal), individual animal / DOPAC release, individual animals: hydrochloride; for DOPAC release, MEAN / DOPAC release, individual animals: 3 mg/kg IP; for DOPAC release, MEAN: n = 8; for DOPAC release, individual animals: per animal R#15,16,21,22,27,28,09,10
Description: The aim of the study was to evaluate, using microdialysis, the effects of an intraperitoneal (I.P.) administration in rats of three different doses of SON-117 on dopamine and its metabolites, serotonin and its metabolite (5-HIAA), and norepinephrine levels in prefrontal cortex.
Thirty-two adult male Wistar rats were used for the whole study (4 groups of eight animals planned for the study, Table 1).
Surgery was performed on rats weighing about 300 g at the beginning of the experiments. Rats were anaesthetized with Ketamine (50 mg/kg) & Xylazine (15 mg/kg) by intramuscular administration. The animals were placed in a stereotaxic apparatus in the flat-skull position at a constant setting of −3.3 mm between ear bars and the incisor bar. The animals were treated with a local anesthesic (xylocaine 1%, Astra Zeneca) and an analgesic (Temgesic, from Schering Plough, 0.05 mg/kg, s.c.). A rostrocaudal midline incision was made with a lancet to expose the dorsal skull surface. The “stereotaxic zero” was defined by the Bregma in accordance with Paxinos and Watson's atlas (1986). A hole was drilled in the skull with a drill and the meninges were pierced with a sterile needle to implant a CMA12 guide cannula which later received the dialysis probe.
Coordinates used for implanting guide cannula in prefrontal cortex from Bregma were anteroposterior 3.7 mm, mediolateral 0.8 mm, and dorsoventral −2 mm (top of the probe was at −5 mm). The guide cannula was fixed to the skull with two stainless steel screws (1.88 mm outside diameter) anchored. An application of dental cement was added. A plastic collar allowed each animal to be tethered to a Swivel assembly of the CMA 120 awake animal system. Following surgery, rats were kept in individual cages and allowed to recover for a minimum of 3-5 days before the experimentation. The rats were handled and put in plastic bowl for 10 min at least every day to habituate the animals to their new environment for the dialysis. An I.P. administration with saline was also performed every day.
Dialysis probes (CMA12/3 mm, membrane, 20 kD cut-off, Carnegie Medicine, Stockholm, Sweden), were carefully washed before inserting into the guide cannula. The wash was performed with the artificial cerebrospinal fluid (aCSF) medium (NaCl 147 mM, KCl 2.7 mM, CaCl2 1.2 mM, MgCl2 0.85 mM) at room temperature. The dialysis system was then equilibrated at 20° C. at a perfusion rate of 1 μl/min with a Carnegie pump (CMA100). All catheters (FEP tubing, internal volume of 1.2 μl/10 cm, and tubing adaptors) used for microdialysis were treated in the same conditions.
The probes duly prepared were inserted into the guide cannula and the CMA120 Swivel assembly secured to the animal using a plastic collar. Flow through the dialysis probe with aCSF was maintained at a rate of 1 μl/min during the whole experimentation. The first four fractions (corresponding to 2 hours) were discarded to avoid the effects of parenchymal disturbance and to ensure that an approximate steady-state level was reached. Fractions were then collected over a period of 8.5 h during which time the animals remained quiet. The dialysates were automatically collected with an autosampler (microfraction collector CMA 140, Carnegie Medicin) and stored at −80° C. until analysis. […] Perfusion was then maintained for 7 hours with aCSF. The dialysates (30 μl) were collected into 300 μl vials, transferred into dry ice and then kept frozen (−80° C.) until analysis. Frozen samples were shipped to a partner for analysis. At the end of the microdialysis study, a PBS with colored ink was perfused through the probe in order to visualize the dialyzed area.
Catecholamine assay: Concentrations of dopamine, DOPAC, HVA, 5-HIAA, 5-HT, and norepinephrin were determined for each sample by HPLC coupled with electrochemical detection.

SMILES: Cc1nnc(-c2cc3c(OC[C@@H](O)CN4CCC(c5ccc(Cl)c(Cl)c5)CC4)cccc3o2)o1 [SON-117, (S)-1-(4-(3,4-dichlorophenyl)piperidino)-3-(2-(5-methyl-1,3,4-oxadiazol-2-yl)benzo(b)furan-4-yloxy)-2-propanol hydrochloride]
- DOPAC (% of respective basal), individual animal (T30-T1 h): 90.11 % of respective basal and 105.88 % of respective basal and 110.45 % of respective basal and 113.21 % of respective basal and 95.59 % of respective basal and 110.39 % of respective basal and 128.2 % of respective basal and 82.35 % of respective basal
- DOPAC (% of respective basal), individual animal (T1 h 30-T2 h): 101.64 % of respective basal and 109.71 % of respective basal and 83.87 % of respective basal and 449.73 % of respective basal and 128.96 % of respective basal and 72.88 % of respective basal and 153.26 % of respective basal and 56.49 % of respective basal
- DOPAC (% of respective basal), individual animal (T1 h-T1 h 30): 79.47 % of respective basal and 158.61 % of respective basal and 92.14 % of respective basal and 126.98 % of respective basal and 119.92 % of respective basal and 119.37 % of respective basal and 135.5 % of respective basal and 66.42 % of respective basal
- DOPAC (% of respective basal), individual animal (T2 h 30-T3 h): 60.75 % of respective basal and 112.82 % of respective basal and 69.17 % of respective basal and 79.31 % of respective basal and 152.5 % of respective basal and 113.62 % of respective basal and 142.16 % of respective basal and 23.28 % of respective basal
- DOPAC (% of respective basal), individual animal (T2 h-T2 h 30): 176.59 % of respective basal and 43.90 % of respective basal and 80.18 % of respective basal and 123.61 % of respective basal and 132.53 % of respective basal and 78.83 % of respective basal and 142.03 % of respective basal and 39.56 % of respective basal
- DOPAC (% of respective basal), individual animal (T3 h 30-T4 h): 53.09 % of respective basal and 116.09 % of respective basal and 68.59 % of respective basal and 73.49 % of respective basal and 180.72 % of respective basal and 107.13 % of respective basal and 128.91 % of respective basal and 40.67 % of respective basal
- DOPAC (% of respective basal), individual animal (T3 h-T3 h 30): 80.45 % of respective basal and 87.7 % of respective basal and 65.69 % of respective basal and 75.20 % of respective basal and 134.32 % of respective basal and 93.13 % of respective basal and 140.15 % of respective basal and 50.88 % of respective basal
- DOPAC (% of respective basal), individual animal (T4 h 30-T5 h): 304.57 % of respective basal and 95.87 % of respective basal and 47.53 % of respective basal and 20.13 % of respective basal and 163.90 % of respective basal and 118.96 % of respective basal and 157.11 % of respective basal and 54.52 % of respective basal
- DOPAC (% of respective basal), individual animal (T4 h-T4 h 30): 345.4 % of respective basal and 109.04 % of respective basal and 79.96 % of respective basal and 110.35 % of respective basal and 164.47 % of respective basal and 110.81 % of respective basal and 148.54 % of respective basal and 71.60 % of respective basal
- DOPAC (% of respective basal), individual animal (T5 h 30-T6 h): 316.35 % of respective basal and 107.67 % of respective basal and 58.65 % of respective basal and 83.02 % of respective basal and 133.93 % of respective basal and 99.81 % of respective basal and 135.88 % of respective basal and 46.79 % of respective basal
- DOPAC (% of respective basal), individual animal (T5 h-T5 h 30): 342.56 % of respective basal and 121.60 % of respective basal and 61.68 % of respective basal and 79.4 % of respective basal and 139.09 % of respective basal and 96.46 % of respective basal and 144.84 % of respective basal and 50.64 % of respective basal
- DOPAC (% of respective basal), individual animal (T6 h 30-T7 h): 344.74 % of respective basal and 120.8 % of respective basal and 139.44 % of respective basal and 80.52 % of respective basal
- DOPAC (% of respective basal), individual animal (T6 h-T6 h 30): 362.18 % of respective basal and 142.01 % of respective basal and 23.55 % of respective basal and 82.92 % of respective basal and 136.09 % of respective basal and 101.05 % of respective basal and 125.76 % of respective basal and 48.95 % of respective basal
- DOPAC release, MEAN (T0-T30 min): 87.96 % of respective basal
- DOPAC release, MEAN (T30-T1 h): 90.03 % of respective basal
- DOPAC release, individual animals (T30-T1 h): 101.17 % of respective basal and 98.27 % of respective basal and 70.16 % of respective basal and 93.38 % of respective basal and 83.10 % of respective basal and 96.90 % of respective basal and 90.68 % of respective basal and 86.57 % of respective basal
- DOPAC release, MEAN (T1 h 30-T2 h): 109.73 % of respective basal
- DOPAC release, individual animals (T1 h 30-T2 h): 148.73 % of respective basal and 196.92 % of respective basal and 78.99 % of respective basal and 114.35 % of respective basal and 65.05 % of respective basal and 98.86 % of respective basal and 85.04 % of respective basal and 87.02 % of respective basal
- DOPAC release, MEAN (T1 h-T1 h 30): 107.74 % of respective basal
- DOPAC release, individual animals (T1 h-T1 h 30): 183.03 % of respective basal and 117.43 % of respective basal and 106.09 % of respective basal and 101.67 % of respective basal and 88.00 % of respective basal and 90.78 % of respective basal and 85.51 % of respective basal and 89.44 % of respective basal
- DOPAC release, MEAN (T2 h 30-T3 h): 92.73 % of respective basal
- DOPAC release, individual animals (T2 h 30-T3 h): 122.00 % of respective basal and 99.60 % of respective basal and 70.87 % of respective basal and 93.90 % of respective basal and 65.07 % of respective basal and 108.76 % of respective basal and 94.51 % of respective basal and 87.10 % of respective basal
- DOPAC release, MEAN (T2 h-T2 h 30): 95.46 % of respective basal
- DOPAC release, individual animals (T2 h-T2 h 30): 111.98 % of respective basal and 121.35 % of respective basal and 63.44 % of respective basal and 89.04 % of respective basal and 75.53 % of respective basal and 92.91 % of respective basal and 122.88 % of respective basal and 86.52 % of respective basal
- DOPAC release, MEAN (T3 h 30-T4 h): 94.20 % of respective basal
- DOPAC release, individual animals (T3 h 30-T4 h): 111.27 % of respective basal and 111.84 % of respective basal and 80.10 % of respective basal and 101.37 % of respective basal and 69.94 % of respective basal and 101.03 % of respective basal and 82.44 % of respective basal and 95.58 % of respective basal
- DOPAC release, MEAN (T3 h-T3 h 30): 102.63 % of respective basal
- DOPAC release, individual animals (T3 h-T3 h 30): 114.26 % of respective basal and 115.76 % of respective basal and 98.98 % of respective basal and 103.32 % of respective basal and 65.78 % of respective basal and 96.52 % of respective basal and 80.53 % of respective basal and 145.86 % of respective basal
- DOPAC release, MEAN (T4 h 30-T5 h): 90.86 % of respective basal
- DOPAC release, individual animals (T4 h 30-T5 h): 99.05 % of respective basal and 111.45 % of respective basal and 86.88 % of respective basal and 84.18 % of respective basal and 65.99 % of respective basal and 114.07 % of respective basal and 88.90 % of respective basal and 76.33 % of respective basal
- DOPAC release, MEAN (T4 h-T4 h 30): 97.50 % of respective basal
- DOPAC release, individual animals (T4 h-T4 h 30): 114.70 % of respective basal and 111.85 % of respective basal and 76.78 % of respective basal and 121.97 % of respective basal and 69.65 % of respective basal and 96.91 % of respective basal and 88.65 % of respective basal and 99.52 % of respective basal
- DOPAC release, MEAN (T5 h 30-T6 h): 93.52 % of respective basal
- DOPAC release, individual animals (T5 h 30-T6 h): 100.08 % of respective basal and 108.82 % of respective basal and 106.21 % of respective basal and 79.12 % of respective basal and 64.79 % of respective basal and 94.19 % of respective basal and 96.33 % of respective basal and 96.49 % of respective basal
- DOPAC release, MEAN (T5 h-T5 h 30): 105.66 % of respective basal
- DOPAC release, individual animals (T5 h-T5 h 30): 96.11 % of respective basal and 118.05 % of respective basal and 106.17 % of respective basal and 90.70 % of respective basal and 68.08 % of respective basal and 136.44 % of respective basal and 128.39 % of respective basal and 101.33 % of respective basal
- DOPAC release, MEAN (T6 h 30-T7 h): 101.08 % of respective basal
- DOPAC release, individual animals (T6 h 30-T7 h): 100.91 % of respective basal and 128.07 % of respective basal and 103.29 % of respective basal and 98.33 % of respective basal and 67.98 % of respective basal
- DOPAC release, MEAN (T6 h-T6 h 30): 97.93 % of respective basal
- DOPAC release, individual animals (T6 h-T6 h 30): 89.69 % of respective basal and 125.97 % of respective basal and 108.08 % of respective basal and 99.61 % of respective basal and 70.30 % of respective basal and 104.34 % of respective basal and 87.50 % of respective basal
- DOPAC release, MEAN (T-30 min-T0 (before administration)): 94.88 % of respective basal

— patent US20250109127A1, “METHODS OF USE OF PHENOXYPROPYLAMINE COMPOUNDS TO TREAT DEPRESSION” (Minerva Neurosciences, Inc., priority 2013, published 2025)
